Measured values reported in US20230287027A1, “ADJUVANT WITH TLR4 AGONIST ACTIVITY” (Sumitomo Pharma Co., Ltd, priority 2020, published 2023).

Assays:
[1] = biological target: T1, mouse TLR4 (Mus musculus, UniProt Q9JHF9+Q9QUK6); experiment: Mouse TLR4 reporter gene assay (Test 2); format: cell-based; settings: HEK-Blue mTLR4 cell line, SEAP reporter, 37° C. 16-20 hours, 0.1% DMSO; concentration giving half of maximal SEAP level induced with LPS
T1 construct: host or cells: HEK-Blue mTLR4 cell line
T1 sequence (Q9QUK6 26-835): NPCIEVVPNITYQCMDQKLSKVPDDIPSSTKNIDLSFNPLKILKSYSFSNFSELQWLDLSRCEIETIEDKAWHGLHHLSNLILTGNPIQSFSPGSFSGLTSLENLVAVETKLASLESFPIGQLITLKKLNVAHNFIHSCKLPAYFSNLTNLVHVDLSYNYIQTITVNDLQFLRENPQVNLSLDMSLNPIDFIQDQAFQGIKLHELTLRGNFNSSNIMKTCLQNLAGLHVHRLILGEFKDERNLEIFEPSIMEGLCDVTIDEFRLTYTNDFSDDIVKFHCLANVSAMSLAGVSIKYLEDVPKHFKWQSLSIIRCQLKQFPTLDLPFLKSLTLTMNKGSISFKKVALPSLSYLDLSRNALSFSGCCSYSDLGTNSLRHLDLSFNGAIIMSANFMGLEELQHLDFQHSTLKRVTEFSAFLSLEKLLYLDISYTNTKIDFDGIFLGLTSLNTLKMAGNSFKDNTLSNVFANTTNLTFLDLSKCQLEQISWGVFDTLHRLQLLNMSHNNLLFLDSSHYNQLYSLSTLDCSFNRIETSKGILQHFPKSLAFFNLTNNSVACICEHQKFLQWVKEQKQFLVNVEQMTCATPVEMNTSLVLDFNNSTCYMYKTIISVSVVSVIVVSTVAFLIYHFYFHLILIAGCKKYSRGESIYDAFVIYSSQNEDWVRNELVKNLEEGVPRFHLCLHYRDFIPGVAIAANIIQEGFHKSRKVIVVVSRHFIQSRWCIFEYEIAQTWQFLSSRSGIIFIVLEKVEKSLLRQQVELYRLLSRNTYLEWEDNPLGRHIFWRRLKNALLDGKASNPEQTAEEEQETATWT
T1 sequence (Q9JHF9 19-160): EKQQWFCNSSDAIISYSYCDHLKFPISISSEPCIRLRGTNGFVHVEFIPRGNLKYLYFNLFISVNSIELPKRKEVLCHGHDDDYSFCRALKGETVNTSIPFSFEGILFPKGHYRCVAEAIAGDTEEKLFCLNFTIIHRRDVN
Source text: Mouse TLR4 Reporter Gene Assay
HEK-Blue™ mTLR4 cell line (Invivogen) is a stably co-transfected cell line which expresses mouse TLR4, MD2, CD14 and secretory SEAP reporter gene under the transcriptional regulation of an NF-κB response element. The TLR4 expression of the cell line has been already tested by RT-PCR, flow cytometry. Transfectants with stable expression were selected using the antibiotic HEK-Blue™ Selection. TLR signaling leads to the translocation of NF-κB and the activation of the promoter results in expression of the SEAP gene. TLR4-specific activation was assessed by determining the level of SEAP produced following incubation of the cells at 37° C. for 16-20 hours with each compound prepared in Examples and Reference examples in the presence of 0.1% (v/v) DMSO. The mouse TLR4 activity for the present compound was assessed by mouse TLR4 reporter gene assay, and the concentration of the compound concentration which produced half of the maximal level of SEAP induced with LPS was determined as EC50.

[2] = biological target: T2, human TLR4 (Homo sapiens, UniProt O00206+Q9Y6Y9); experiment: Human TLR4 reporter gene assay (Test 1); format: cell-based; settings: HEK-Blue hTLR4 cell line, SEAP reporter, 37° C. 16-20 hours, 0.1% DMSO; concentration giving half of maximal SEAP level induced with LPS
T2 construct: host or cells: HEK-Blue hTLR4 cell line
Source text: Human TLR4 Reporter Gene Assay
HEK-Blue™ hTLR4 cell line (Invivogen Corporation) is a stably co-transfected cell line which expresses human TLR4, MD2, CD14, and secretory alkaline phosphatase (SEAP) reporter gene under the transcriptional regulation of an NF-κB response element. The TLR4 expression of the cell line has been already tested by RT-PCR, flow cytometry. Transfectants with stable expression were selected using the antibiotic HEK-Blue™ Selection. TLR signaling leads to the translocation of NF-κB and the activation of the promoter results in expression of the SEAP gene. TLR4-specific activation was assessed by determining the level of SEAP produced following incubation of the cells at 37° C. for 16-20 hours with each compound prepared in Examples and Reference examples in the presence of 0.1% (v/v) DMSO. The human TLR4 activity for the present compound was assessed by human TLR4 reporter gene assay, and the concentration of the compound concentration which produced half of the maximal level of SEAP induced with lipopolysaccharide (LPS) was determined as EC50.

T2 sequence (O00206 24-839): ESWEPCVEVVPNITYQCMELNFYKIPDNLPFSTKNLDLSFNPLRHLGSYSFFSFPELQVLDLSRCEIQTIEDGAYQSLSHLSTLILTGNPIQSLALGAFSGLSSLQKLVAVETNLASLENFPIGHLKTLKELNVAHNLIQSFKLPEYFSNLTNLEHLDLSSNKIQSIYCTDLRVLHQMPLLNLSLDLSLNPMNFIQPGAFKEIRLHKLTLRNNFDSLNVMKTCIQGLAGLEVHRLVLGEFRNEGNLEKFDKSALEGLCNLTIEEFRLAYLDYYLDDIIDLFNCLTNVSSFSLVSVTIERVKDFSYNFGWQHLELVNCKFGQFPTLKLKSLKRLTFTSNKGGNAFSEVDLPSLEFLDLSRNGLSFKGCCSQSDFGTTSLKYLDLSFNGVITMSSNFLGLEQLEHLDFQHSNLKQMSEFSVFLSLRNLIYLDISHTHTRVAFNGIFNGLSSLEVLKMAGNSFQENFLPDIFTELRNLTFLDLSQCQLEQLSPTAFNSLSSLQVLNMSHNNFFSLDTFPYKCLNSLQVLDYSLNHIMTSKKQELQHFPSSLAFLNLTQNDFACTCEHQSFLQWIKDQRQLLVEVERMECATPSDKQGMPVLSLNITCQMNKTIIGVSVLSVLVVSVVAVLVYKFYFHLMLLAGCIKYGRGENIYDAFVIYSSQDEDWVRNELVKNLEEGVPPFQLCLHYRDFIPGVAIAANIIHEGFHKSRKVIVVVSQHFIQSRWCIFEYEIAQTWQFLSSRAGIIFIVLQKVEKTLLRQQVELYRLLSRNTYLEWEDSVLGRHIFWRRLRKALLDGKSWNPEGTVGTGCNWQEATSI
T2 sequence (Q9Y6Y9 17-160 limits assumed): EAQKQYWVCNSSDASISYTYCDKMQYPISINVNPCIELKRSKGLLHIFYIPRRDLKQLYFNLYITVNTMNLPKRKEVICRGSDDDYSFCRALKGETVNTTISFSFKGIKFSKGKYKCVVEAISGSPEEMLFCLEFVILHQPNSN

| Molecule | EC50 [1] [nM] | EC50 [2] [nM] | mouse TLR4 EC50 [1] [µg/mL] | human TLR4 EC50 [2] [µg/mL] |
| --- | --- | --- | --- | --- |
| CCCCCCCCCCC[C@H](CC(=O)NC(COC1OC(CO)C(OP(=O)(O)O)C(OC(=O)C[C@@H](CCCCCCCCCCC)OC(=O)CCCCCCCCC)C1NC(=O)C[C@@H](CCCCCCCCCCC)OC(=O)CCCCCCCCc1ccccc1)C(=O)O)OC(=O)CCCCCCCCC (single isomer, unassigned) [compound 12] | > 645 | > 645 | – | – |
| CCCCCCCCCCC[C@H](CC(=O)NC1C(OC[C@@H](NC(=O)C[C@@H](CCCCCCCCCCC)OC(=O)CCCCCCCCC)C(=O)O)OC(CO)C(O)C1OC(=O)C[C@@H](CCCCCCCCCCC)OC(=O)CCCCCCCCC)OC(=O)CCCCCCCCc1ccccc1 (stereo partly drawn) [Example 3, (2R)-2-{[(3R)-3-(decanoyloxy)tetradecanoyl]amino}-3-{[4-{[(3R)-3-(decanoyloxy)tetradecanoyl]oxy}-5-hydroxy-6-(hydroxymethyl)-3-({(3R)-3-[(9-phenylnonanoyl)oxy]tetradecanoyl}amino)oxan-2-yl]oxy}propanoic acid] | 137 | 161 | – | – |
| CCCCCCCCCCC[C@H](CC(=O)NC(COC1OC(CO)C(O)C(OC(=O)C[C@@H](CCCCCCCCCCC)OC(=O)CCCCCCCCC)C1NC(=O)C[C@@H](CCCCCCCCCCC)OC(=O)CCCCCCCCC)C(=O)O)OC(=O)CCCCCCCCc1ccccc1 (stereo partly drawn) [Example 5, (2S)-2-({[(3R)-3-(9-phenylnonanoyl)oxy]tetradecanoyl}amino)-3-{[3-{[(3R)-3-(decanoyloxy)tetradecanoyl]amino}-5-hydroxy-6-(hydroxymethyl)-4-({(3R)-3-(decanoyloxy)tetradecanoyl}oxy)oxan-2-yl]oxy}propanoic acid] | 49.7 | 101 | – | – |
| CCCCCCCCCCC[C@H](CC(=O)NC(COC1OC(CO)C(OP(=O)(O)O)C(OC(=O)C[C@@H](CCCCCCCCCCC)OC(=O)CCCCCCCCC)C1NC(=O)C[C@@H](CCCCCCCCCCC)OC(=O)CCCCCCCCC)C(=O)O)OC(=O)CCCCCCCCc1ccccc1 (stereo partly shown) [compound 14] | 14.2 | 14.2 | – | – |
| (2R)-2-({[(3R)-3-(9-phenylnonanoyl)oxy]tetradecanoyl}amino)-3-{[3-{[(3R)-3-(decanoyloxy)tetradecanoyl]amino}-5-hydroxy-6-(hydroxymethyl)-4-({(3R)-3-(decanoyloxy)tetradecanoyl}oxy)oxan-2-yl]oxy}propanoic acid [Example 4] | – | – | 0.057 | 0.077 |

The remaining lines, values ahead:

| EC50 [1] [nM] | EC50 [2] [nM] | mouse TLR4 EC50 [1] [µg/mL] | human TLR4 EC50 [2] [µg/mL] | Molecule |
| --- | --- | --- | --- | --- |
| 50.3 | 457 | – | – | CCCCCCCCCCC[C@H](CC(=O)NC(COC1OC(CO)C(OP(=O)(O)O)C(OC(=O)C[C@@H](CCCCCCCCCCC)OC(=O)CCCCCCCCC)C1NC(=O)C[C@@H](CCCCCCCCCCC)OC(=O)CCCCCCCCc1ccccc1)C(=O)O)OC(=O)CCCCCCCCC (single isomer, unassigned) [compound 11] |
| 12.9 | 12.9 | – | – | CCCCCCCCCCC[C@H](CC(=O)NC(COC1OC(CO)C(OP(=O)(O)O)C(OC(=O)C[C@@H](CCCCCCCCCCC)OC(=O)CCCCCCCCc2ccccc2)C1NC(=O)C[C@@H](CCCCCCCCCCC)OC(=O)CCCCCCCCC)C(=O)O)OC(=O)CCCCCCCCC (stereo partly shown) [Reference example 10] |
| 13.5 | 34.2 | – | – | CCCCCCCCCCC[C@H](CC(=O)NC(COC1OC(CO)C(OP(=O)(O)O)C(OC(=O)C[C@@H](CCCCCCCCCCC)OC(=O)CCCCCCCCC)C1NC(=O)C[C@@H](CCCCCCCCCCC)OC(=O)CCCCCCCCC)C(=O)O)OC(=O)CCCCCCCCc1ccccc1 (stereo partly shown) [compound 13] |
